Data reported in ChEMBL document CHEMBL4020850, “Discovery of LSZ102, a Potent, Orally Bioavailable Selective Estrogen Receptor Degrader (SERD) for the Treatment of Estrogen Receptor Positive Breast Cancer” (J Med Chem, 2018).
Active and inactive are the calls of the source. The calls are words filed in the database; no cut-off is given here.

Assays:
[1] = molecular target: T1, Estrogen receptor (Homo sapiens, UniProt P03372); assay: Induction of selective estrogen receptor alpha degradation in human MCF7 cells after 18 to 24 hrs by in-cell Western analysis; assay type: cell-based
T1 sequence (P03372 whole entry): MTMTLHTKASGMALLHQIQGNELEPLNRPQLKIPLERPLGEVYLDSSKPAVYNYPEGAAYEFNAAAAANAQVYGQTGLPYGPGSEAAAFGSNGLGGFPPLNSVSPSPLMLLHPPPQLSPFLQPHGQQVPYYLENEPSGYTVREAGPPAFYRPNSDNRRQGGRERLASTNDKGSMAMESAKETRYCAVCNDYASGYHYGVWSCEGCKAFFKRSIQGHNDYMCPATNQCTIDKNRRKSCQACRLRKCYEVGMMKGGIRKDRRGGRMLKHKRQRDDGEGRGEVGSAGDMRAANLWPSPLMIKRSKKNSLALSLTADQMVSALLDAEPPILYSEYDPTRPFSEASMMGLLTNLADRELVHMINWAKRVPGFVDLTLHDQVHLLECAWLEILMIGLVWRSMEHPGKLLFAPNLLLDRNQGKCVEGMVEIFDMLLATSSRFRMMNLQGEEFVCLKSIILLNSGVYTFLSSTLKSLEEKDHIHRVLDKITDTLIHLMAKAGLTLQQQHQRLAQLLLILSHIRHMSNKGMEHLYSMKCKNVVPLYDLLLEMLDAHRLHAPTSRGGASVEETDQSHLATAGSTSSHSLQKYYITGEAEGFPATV

[2] = Clearance in C57BL/6 mouse at 1 mg/kg, iv or 3 mg/kg, po; assay type: ADME, organism-based; conditions: in vivo
[3] = molecular target: T1, Estrogen receptor; assay: Induction of selective estrogen receptor alpha degradation in human MCF7 cells harboring TK-ERE-Luc assessed as reduction in estradiol-induced transcriptional activity after 24 hrs by luciferase reporter gene assay; assay type: cell-based
[4] = Clearance in Sprague-Dawley rat at 1 mg/kg, iv or 3 mg/kg, po; assay type: ADME, organism-based; conditions: in vivo
[5] = Cmax in Sprague-Dawley rat at 3 mg/kg, po; assay type: ADME, organism-based; parameters: dose 3 mg/kg, route oral; conditions: in vivo
[6] = Oral bioavailability in Sprague-Dawley rat at 3 mg/kg; assay type: ADME, organism-based; conditions: in vivo
[7] = Cmax in C57BL/6 mouse at 3 mg/kg, po; assay type: ADME, organism-based; parameters: dose 3 mg/kg, route oral; conditions: in vivo
[8] = Oral bioavailability in C57BL/6 mouse at 3 mg/kg; assay type: ADME, organism-based; conditions: in vivo
[9] = Equilibrium solubility in pH 6.8 buffer at 1 mM after 16 hrs by HPLC based shake flask method; assay type: physicochemical
[10] = system: MCF7; assay: Antitumor activity against human MCF7 cells xenografted in NOD SCID gamma mouse assessed as change in tumor volume at 5 mg, sc administered once in a week for 48 days post tumor implantation measured 7 hrs post last dose; assay type: functional
[11] = system: Mus musculus; assay: Downregulation of progesterone receptor mRNA level in NOD SCID gamma mouse xenografted with human MCF7 cells at 5 mg, sc administered once in a week for 48 days post tumor implantation measured 7 hrs post last dose by RT-PCR method; assay type: functional, organism-based
[12] = system: Mus musculus; assay: In vivo inhibition of ER protein level in NOD SCID gamma mouse xenografted with human MCF7 cells at 5 mg, sc administered once in a week for 48 days post tumor implantation measured 7 hrs post last dose by Western blot method relative to control; assay type: functional
[13] = system: MCF7; assay: Antitumor activity against human MCF7 cells xenografted in NOD SCID gamma mouse assessed as change in tumor volume at 60 mg/kg, po 5 days per week for 48 days post tumor implantation measured 7 hrs post last dose; assay type: functional
[14] = system: Mus musculus; assay: Downregulation of progesterone receptor mRNA level in NOD SCID gamma mouse xenografted with human MCF7 cells at 60 mg/kg, po 5 days per week for 48 days post tumor implantation measured 7 hrs post last dose by RT-PCR method; assay type: functional, organism-based
[15] = system: MCF7; assay: Antiproliferative activity against human MCF7 cells after 6 days in presence of estradiol by CellTiter-Glo assay; conditions: MCF7, 144 h
[16] = system: MCF7; assay: Antitumor activity against human MCF7 cells xenografted in NOD SCID gamma mouse assessed as change in tumor volume at 20 mg/kg, po qd for 48 days post tumor implantation measured 7 hrs post last dose; assay type: functional
[17] = AUC in NOD SCID gamma mouse xenografted with human MCF7 cells at 20 mg/kg, po qd for 19 days; assay type: ADME, organism-based; conditions: in vivo
[18] = Cmax in NOD SCID gamma mouse xenografted with human MCF7 cells at 20 mg/kg, po qd for 19 days; assay type: ADME, organism-based; parameters: dose 20 mg/kg, route oral; conditions: in vivo
[19] = system: Mus musculus; assay: Downregulation of progesterone receptor mRNA level in NOD SCID gamma mouse xenografted with human MCF7 cells at 20 mg/kg, po qd for 48 days post tumor implantation measured 7 hrs post last dose by RT-PCR method; assay type: functional, organism-based
[20] = system: Mus musculus; assay: In vivo inhibition of ER protein level in NOD SCID gamma mouse xenografted with human MCF7 cells at 20 mg/kg, po qd for 48 days post tumor implantation measured 7 hrs post last dose by Western blot method relative to control; assay type: functional
[21] = system: Rattus norvegicus; assay: Dose normalized Cmax in Sprague-Dawley rat at 3 mg/kg, po; assay type: ADME, organism-based; conditions: in vivo
[22] = system: Rattus norvegicus; assay: Dose normalized AUC (0 to t) in Sprague-Dawley rat at 1 mg/kg, iv; assay type: ADME, organism-based; conditions: in vivo
[23] = system: Rattus norvegicus; assay: Dose normalized AUC (0 to t) in Sprague-Dawley rat at 3 mg/kg, po; assay type: ADME, organism-based; conditions: in vivo
[24] = Volume of distribution at steady state in Sprague-Dawley rat at 1 mg/kg, iv or 3 mg/kg, po; assay type: ADME, organism-based; conditions: in vivo, read-out: Vdss
[25] = Elimination half life in Sprague-Dawley rat at 1 mg/kg, iv or 3 mg/kg, po; assay type: ADME, organism-based; conditions: in vivo, read-out: beta t1/2 (converted)
[26] = system: Rattus norvegicus; assay: Dose normalized Cmax in Wistar Han rat at 30 mg/kg, po; assay type: ADME, organism-based; conditions: in vivo
[27] = system: Rattus norvegicus; assay: Dose normalized AUC (0 to t) in Wistar Han rat at 30 mg/kg, po; assay type: ADME, organism-based; conditions: in vivo
[28] = system: Rattus norvegicus; assay: Dose normalized Cmax in Wistar Han rat at 100 mg/kg, po; assay type: ADME, organism-based; conditions: in vivo
[29] = system: Rattus norvegicus; assay: Dose normalized AUC (0 to t) in Wistar Han rat at 100 mg/kg, po; assay type: ADME, organism-based; conditions: in vivo
[30] = system: Rattus norvegicus; assay: Dose normalized Cmax in Wistar Han rat at 300 mg/kg, po; assay type: ADME, organism-based; conditions: in vivo
[31] = system: Rattus norvegicus; assay: Dose normalized AUC (0 to t) in Wistar Han rat at 300 mg/kg, po; assay type: ADME, organism-based; conditions: in vivo
[32] = system: Canis familiaris; assay: Dose normalized Cmax in Beagle dog at 30 mg/kg, po; assay type: ADME, organism-based, Canis lupus familiaris; conditions: in vivo
[33] = Oral bioavailability in Beagle dog at 10 mg/kg; assay type: ADME, organism-based, Canis lupus familiaris; conditions: in vivo
[34] = Elimination half life in Beagle dog at 0.3 mg/kg, iv or 10 mg/kg, po; assay type: ADME, organism-based, Canis lupus familiaris; conditions: in vivo, read-out: beta t1/2 (converted)
[35] = Clearance in Beagle dog at 0.3 mg/kg, iv or 10 mg/kg, po; assay type: ADME, organism-based, Canis lupus familiaris; conditions: in vivo
[36] = system: Canis familiaris; assay: Dose normalized AUC (0 to t) in Beagle dog at 10 mg/kg, po; assay type: ADME, organism-based, Canis lupus familiaris; conditions: in vivo
[37] = Volume of distribution at steady state in Beagle dog at 0.3 mg/kg, iv or 10 mg/kg, po; assay type: ADME, organism-based, Canis lupus familiaris; conditions: in vivo, read-out: Vdss
[38] = system: Canis familiaris; assay: Dose normalized AUC (0 to t) in Beagle dog at 0.3 mg/kg, iv; assay type: ADME, organism-based, Canis lupus familiaris; conditions: in vivo
[39] = system: Canis familiaris; assay: Clearance in Beagle dog at 0.3 mg/kg, iv or 10 mg/kg, po relative to hepatic blood flow; assay type: ADME, organism-based, Canis lupus familiaris; conditions: in vivo
[40] = system: Canis familiaris; assay: Dose normalized Cmax in Beagle dog at 10 mg/kg, po; assay type: ADME, organism-based, Canis lupus familiaris; conditions: in vivo
[41] = system: Canis familiaris; assay: Dose normalized AUC (0 to t) in Beagle dog at 30 mg/kg, po; assay type: ADME, organism-based, Canis lupus familiaris; conditions: in vivo
[42] = AUC in Beagle dog at 10 mg/kg, po; assay type: ADME, organism-based, Canis lupus familiaris; conditions: in vivo

## COCc1ccccc1-c1sc2cc(O)ccc2c1Oc1ccc(/C=C/C(=O)O)cc1
[1]
  IC50: 3 nM

## O=C(O)/C=C/c1ccc(Oc2c(-c3ccc(F)cc3)sc3cc(O)ccc23)cc1
[2]
  clearance: 22 mL/min/kg
[3]
  IC50: 1820 nM
[4]
  clearance: 24 mL/min/kg
[5]
  Cmax: 847 nM
[6]
  bioavailability: 33%
[7]
  Cmax: 505 nM
[8]
  bioavailability: 19%

## O=C(O)/C=C/c1ccc(Nc2c(-c3ccc(O)cc3)sc3cc(O)ccc23)cc1
[3]
  IC50: > 10000 nM

## O=C(O)CCc1ccc(Oc2c(-c3ccc(O)cc3)sc3cc(O)ccc23)cc1
[9]
  solubility thermodynamic at 16 h, 1000 µM: > 1000 µM

## CC/C(=C(/c1ccc(/C=C/C(=O)O)cc1)c1ccc2[nH]ncc2c1)c1ccc(F)cc1Cl [BRILANESTRANT]
[2]
  clearance: 16 mL/min/kg
[7]
  Cmax: 1240 nM
[8]
  bioavailability: 42%

## C[C@]12CC[C@@H]3c4ccc(O)cc4C[C@@H](CCCCCCCCC[S+]([O-])CCCC(F)(F)C(F)(F)F)[C@H]3[C@@H]1CC[C@@H]2O (some centres undefined) [FULVESTRANT]
[10]
  T/C: 24%
[11]
  Activity: Active
[12]
  inhibition (INH): 67%

## CC(F)(F)c1ccccc1-c1sc2cc(O)ccc2c1Oc1ccc(/C=C/C(=O)O)cc1
[2]
  clearance: 14 mL/min/kg
[7]
  Cmax: 187 nM
[8]
  bioavailability: 5%

## O=C(/C=C/c1ccc(Oc2c(-c3ccc(O)cc3)sc3cc(O)ccc23)cc1)NCCC(F)(F)F
[9]
  solubility thermodynamic at 16 h, 1000 µM: < 5 µM

## NC(=O)/C=C/c1ccc(Oc2c(-c3ccc(O)cc3)sc3cc(O)ccc23)cc1
[9]
  solubility thermodynamic at 16 h, 1000 µM: < 5 µM

## CC(C)c1ccccc1-c1sc2cc(O)ccc2c1Oc1ccc(/C=C/C(=O)O)cc1
[2]
  clearance: 15 mL/min/kg
[7]
  Cmax: 1180 nM
[8]
  bioavailability: 13%

## CC/C(=C(\c1ccccc1)c1ccc(OCCN(C)C)cc1)c1ccccc1 [TAMOXIFEN]
[13]
  T/C: 24%
[14]
  Activity: Active

## CC(F)(F)c1cc(F)ccc1-c1sc2cc(O)ccc2c1Oc1ccc(/C=C/C(=O)O)cc1 [LSZ-102]
[2]
  clearance: 28 mL/min/kg
[4]
  clearance: 19 mL/min/kg
[6]
  bioavailability: 33%
[7]
  Cmax: 492 nM
[8]
  bioavailability: 12%
[15]
  IC50: 1.7 nM
[16]
  T/C: 2.4%
[17]
  AUC at 456 h: 3.23 µM·h
[18]
  Cmax: 1070 nM
[19]
  Activity: Active
[20]
  inhibition in vivo at 20 mg/kg: 63%
[21]
  Cmax/dose: 240 nM
[22]
  AUCt/dose: 1849 nM·h
[23]
  AUCt/dose: 620 nM·h
[24]
  Vd: 0.9 L/kg
[25]
  half-life: 1.4 h
[26]
  Cmax/dose: 1259 nM
[27]
  AUCt/dose: 2117 nM·h
[28]
  Cmax/dose: 513 nM
[29]
  AUCt/dose: 1940 nM·h
[30]
  Cmax/dose: 334 nM
[31]
  AUCt/dose: 3405 nM·h
[32]
  Cmax/dose: 123 nM
[33]
  bioavailability: 12%
[34]
  half-life: 4.1 h
[35]
  clearance: 5 mL/min/kg
[36]
  AUCt/dose: 962 nM·h
[37]
  Vd: 0.3 L/kg
[38]
  AUCt/dose: 7713 nM·h
[39]
  CL: 15%
[40]
  Cmax/dose: 268 nM
[41]
  AUCt/dose: 624 nM·h
[42]
  AUC: 9.62 µM·h
